Experimental data from patent publication US5905074A, “Vitamin D derivative” (Hoffmann-La Roche Inc., priority 1995, dated 1999).

Columns and labels:
[1] = Calcium liability (tolerance test in mice); details: mouse, in vivo, sc; daily subcutaneous, 4 consecutive days; dose resulting in zero weight gain during 5 day treatment period; read-out: highest tolerated dose (mice)
From the text: This routine test gives a global picture of calcemic liability. Profound changes in calcium homeostasis strongly affect the weight development of the animals. This parameter was used as a primary test for tolerance.
Mice (25-30 g body weight) received daily subcutaneous administrations of the vitamin D derivative for 4 consecutive days. Body weight was registered just before and at the end of a […] treatment period. The "highest tolerated dose" (HTD) in mice is the dose which results in zero weight gain during this treatment period.

human VDR = biological target: T1, human VDR (Homo sapiens, UniProt P11473); experiment: VDR activation (transcription activation assay, luciferase reporter); assay type: cell-based; details: half-maximal induction of luciferase activity
T1 construct: expressed in transfected cells; host or cells: COS cells or CV-1 cells (VDR expressed in pSG5)
T1 sequence (P11473 1-427): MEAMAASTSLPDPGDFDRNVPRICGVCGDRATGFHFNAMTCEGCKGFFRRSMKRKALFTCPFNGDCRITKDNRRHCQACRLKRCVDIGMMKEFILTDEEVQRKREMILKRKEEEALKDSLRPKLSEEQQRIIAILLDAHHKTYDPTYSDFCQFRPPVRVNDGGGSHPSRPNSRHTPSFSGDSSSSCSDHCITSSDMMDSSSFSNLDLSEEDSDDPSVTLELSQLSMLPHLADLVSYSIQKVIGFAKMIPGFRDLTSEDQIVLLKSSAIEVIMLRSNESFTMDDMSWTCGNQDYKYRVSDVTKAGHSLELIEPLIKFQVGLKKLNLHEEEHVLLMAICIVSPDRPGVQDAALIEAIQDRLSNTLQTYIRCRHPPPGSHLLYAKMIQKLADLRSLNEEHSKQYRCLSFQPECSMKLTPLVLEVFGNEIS
From the text: In order to measure the activation of the vitamin D receptor (VDR) by vitamin D analogs in cells a transcription activation assay was used. COS cells or CV-1 cells were cotransfected with the human VDR (expressed in pSG5) and a reporter gene containing three response elements (VDRE3) from the rat osteocalcine gene, the thymidine kinase basal promoter, and the luciferase reporter gene.

HL-60 cells = experiment: HL-60 differentiation (NBT reduction, oxidative burst potential); assay type: cell-based; details: Homo sapiens, HL-60, 72 h; 3 days; 50% of maximal differentiation achieved with 100-1000 nM calcitriol
Experimental: The induction of differentiation of HL-60 cells was assayed by measuring their oxidative burst potential via the reduction of NBT (Nitro-bluetetraolium) according to a modified procedure of E. Pick et al. in J. Reticul.
30,000 cells/90 μl of RPMI/FCS were seeded into flat-bottomed microtiter wells. Immediately after seeding, 10 μl of vitamin D derivatives diluted in complete medium (RPMI/FCS) were added to yield final concentrations between 10^-11 and 10^-6 M (starting from 1 mM stock solutions in ethanol which were stored at -20° and protected from light). After 3 days, the medium was removed with a multichannel pipette and replaced with 100 μl of NBT solution (1 mg/ml in Dulbecco's PBS with 200 nM phorbol myristate acetate (PMA)). Following an incubation of 1 hour at 37° C. the NBT solution was removed and 100 μl of 10% SDS in 0.01N HCl was added. After further incubation at 37° C. for 6 hours (or more), the amount of the reduced NBT was quantified photometrically at 540 nm using an automated plate reader. The mean of 3 wells was calculated.
Values were expressed as percent of maximal differentiation achieved with 100-1000 nM calcitriol in the same experiment.

| SMILES | MTD [1] [µg/kg] | EC50 (human VDR; COS cells) [nM] | EC50 (human VDR; CV-1 cells) [nM] | EC50 (HL-60 cells) [nM] |
| --- | --- | --- | --- | --- |
| C=C1/C(=C\C=C2/CCC[C@]3(C)[C@@H]([C@H](C)CCCC(C)(C)O)CCC[C@@H]23)C[C@@H](O)C[C@@H]1O [Compound of formula I, (1R,3S)-5-[(Z)-2-[(E)-(4aR,5R,8aR)-5-[(R)-5-Hydroxy-1,5-dimethyl-hexyl]-4a-methyl-octahydro-naphtalen-1-ylidene]-ethylidene]-4-methylene-cyclohexane-1,3-diol] | 0.6 | 1.2 | 0.04 | 0.37 |
| C=C1/C(=C\C=C2/CCC[C@]3(C)[C@@H]([C@H](C)CCCC(C)(C)O)CC[C@@H]23)C[C@@H](O)C[C@@H]1O [Calcitriol, reference compound] |  |  |  | 5 |
